# Experimental data from article PMC8170916, “Sublingual AKBA Exerts Antidepressant Effects in the Aβ-Treated Mouse Model” (Biomolecules, 2021).
# Assays:
# glutamate (GLU) = test: Glutamate quantification in PFC and HIPP by HPLC with fluorescence detection; assay type: in vivo; settings: PFC, mice 7 days after icv Aβ 4 µM; sublingual AKBA 5 mg/kg 30 min earlier
# Description: (§1) All behavioral experiments were conducted at 5 or 30 min after sublingual administrations of AKBA or vehicle in either SHAM or Aβ-treated mice. Based upon behavioral outcomes observed, neurochemical and biochemical quantifications were performed 30 min after AKBA or vehicle administration in either SHAM or Aβ-treated mice.
# (§2) Anesthetized animals were sacrificed by cervical dislocation. Brains were immediately removed and kept on ice for dissection of PFC and HIPP, according to the atlas of Paxinos and Franklin. Tissues were frozen and stored at −80 °C until analyses were carried out. Samples (PFC and HIPP) were homogenized (1:10 w/v) at 4 °C using a PBS buffer containing a 1:100 protease and phosphatase inhibitor cocktail (HALT inhibitors, Thermo Fisher Scientific, Cleveland, OH, USA) for biochemical analyses or perchloric acid 0.1 M for neurochemical analyses. Homogenates were centrifuged at 13,000× g at 4 °C for 20 min, and supernatants were used for further determinations.
# (§3) 5-HT, noradrenaline (NA), and KYN levels were measured in the PFC and HIPP of mice by HPLC coupled with an electrochemical detector (Ultimate ECD, Thermo Scientific Dionex, Milan, Italy) as already reported. Separation was performed by a LC18 reverse phase column (Kinetex, 150 mm × 3.0 mm, ODS 5 μm; Phenomenex, Castel Maggiore-Bologna, Italy). The detection was accomplished by a thin layer amperometric cell (Thermo Scientific Dionex, Milan, Italy) with a 5 mm diameter glassy carbon electrode at a working potential of 400 mV (5-HT and NA) or 0.750 mV (KYN) vs. Pd. The mobile phase consisted of an aqueous buffer containing 75 mM NaH2PO4, 1.7 mM octane sulfonic acid, 0.3 mM EDTA, and acetonitrile 10%, buffered at pH 3.0. […] GLU concentrations were determined by HPLC coupled with fluorescence detection (emission length 460 nm; excitation length 340 nm), as previously published. […] Results were analyzed by Borwin software (version 1.50; Jasco, Cremella, Italy) and the amino acid concentration was expressed as µM. All data were normalized for total area weight and were expressed as concentration/mg of tissue.
# GFAP = test: Western blotting quantification of GFAP in PFC and HIPP; assay type: in vivo; settings: mice 7 days after icv Aβ 4 µM, sublingual AKBA 5 mg/kg 30 min earlier
# Description: as §1, §2
# (§4) The total amount of proteins was measured in homogenates by using Pierce BCA Assay (Thermo Fisher Scientific, Cleveland, OH, USA). Forty µg of the total lysate protein were separated by SDS-PAGE precast gels (Bio-Rad Laboratories Inc., Segrate (MI), Italy), transferred onto nitrocellulose membranes (Bio-Rad Laboratories Inc, Segrate (MI), Italy) and then blocked for 1 h in blocking buffer (SigmaAldrich, Milan, Italy). Rabbit polyclonal antibody against GFAP (Dako Products, USA; 1:2000), rabbit monoclonal antibody against CD11b (Abcam, Cambridge, MA, USA; ab133357, 1:1000) and mouse monoclonal antibody against NF-kB p65 (Santa Cruz Biotechnology, Dallas, Texas, USA; 1:2000) were used to incubate the membranes overnight at 4 °C. After HRP-conjugated specific antibody incubation, ECL reagent (Bio-Rad Laboratories Inc., Segrate (MI), Italy) was added to the immune complex and chemiluminescence was detected by ChemiDoc MP system (Bio-Rad Laboratories Inc., Segrate (MI), Italy). Optical densities of the bands were measured using ImageJ software (http://rsb.info.nih.gov/ij/ accessed on 15 March 2021) and normalized against bands relative to β-actin (1:5000, Abcam, Cambridge, UK).
# CD11b = test: Western blotting quantification of CD11b in PFC and HIPP; assay type: in vivo; settings: mice 7 days after icv Aβ 4 µM, sublingual AKBA 5 mg/kg 30 min earlier
# Description: as §1, §2, §4
# APPswe/PS1dE9 = system: APPswe/PS1dE9; design: method as in PMID 32109514; settings: AD genetic model; cited from earlier work
# noradrenaline (NA) = test: Noradrenaline quantification in PFC and HIPP by HPLC with electrochemical detection; assay type: in vivo; settings: mice 7 days after icv Aβ 4 µM, sublingual AKBA 5 mg/kg 30 min earlier
# Description: as §1, §2, §3
# kynurenine (KYN) = test: Kynurenine quantification in PFC and HIPP by HPLC with electrochemical detection; assay type: in vivo; settings: mice 7 days after icv Aβ 4 µM, sublingual AKBA 5 mg/kg 30 min earlier
# Description: as §1, §2
# (§5) 5-HT, noradrenaline (NA), and KYN levels were measured in the PFC and HIPP of mice by HPLC coupled with an electrochemical detector (Ultimate ECD, Thermo Scientific Dionex, Milan, Italy) as already reported. Separation was performed by a LC18 reverse phase column (Kinetex, 150 mm × 3.0 mm, ODS 5 μm; Phenomenex, Castel Maggiore-Bologna, Italy). The detection was accomplished by a thin layer amperometric cell (Thermo Scientific Dionex, Milan, Italy) with a 5 mm diameter glassy carbon electrode at a working potential of 400 mV (5-HT and NA) or 0.750 mV (KYN) vs. Pd. The mobile phase consisted of an aqueous buffer containing 75 mM NaH2PO4, 1.7 mM octane sulfonic acid, 0.3 mM EDTA, and acetonitrile 10%, buffered at pH 3.0. The flow rate was kept at 0.7 mL·min-1 by an isocratic pump (Shimadzu LC-10 AD, Kyoto, Japan). Data acquisition and integration were performed by using Chromeleon software (version 6.80, Thermo Scientific Dionex, Milan, Italy). GLU concentrations were determined by HPLC coupled with fluorescence detection (emission length 460 nm; excitation length 340 nm), as previously published. Analyses were carried out using an LC18 reverse phase column (Kinetex, 150 mm × 3.0 mm, ODS 5 μm; Phenomenex, Castel Maggiore, Bologna, Italy) and detection was accomplished by pre-column derivatization with ophthalaldehyde/mercaptopropionic acid. The mobile phase consisted of a 50 mM sodium acetate buffer, at pH 6.95, with gradient methanol increasing linearly from 2 to 30% (v/v) over a 40 min run. […] Results were analyzed by Borwin software (version 1.50; Jasco, Cremella, Italy) and the amino acid concentration was expressed as µM. All data were normalized for total area weight and were expressed as concentration/mg of tissue.
# 5-HT = 5-HT quantification in PFC and HIPP by HPLC with electrochemical detection; assay type: in vivo; settings: mice 7 days after icv Aβ 4 µM, sublingual AKBA 5 mg/kg 30 min earlier
# Description: as §1, §2, §5
compound,measurement,setting,value
"CC(=O)O[C@@H]1CC[C@@]2(C)[C@@H](CC[C@]3(C)[C@@H]2C(=O)C=C2[C@@H]4[C@@H](C)[C@H](C)CC[C@]4(C)CC[C@]23C)[C@@]1(C)C(=O)O [AKBA, 3-O-acetyl-11-keto-β-boswellic acid]",GLU levels in the PFC,glutamate (GLU),restored those levels to control
same,GFAP levels in the HIPP (optical density normalized to actin),GFAP; HIPP,restored those levels back to control
same,GFAP levels in the PFC (optical density normalized to actin),GFAP; PFC,prevented such an increase
same,CD11b levels in the HIPP (optical density normalized to actin),CD11b; HIPP,not able to modify such an outcome
same,CD11b content in the PFC (optical density normalized to actin),CD11b; PFC,no differences were found among experimental groups
same,Cerebral amyloid beta (Aβ) production and plaque burden in APPswe/PS1dE9,APPswe/PS1dE9,decrease cerebral amyloid beta (Aβ) production and plaque burden
same,Cognitive impairments in APPswe/PS1dE9,APPswe/PS1dE9,able to reverse cognitive impairments
same,NA levels in the HIPP,noradrenaline (NA); HIPP,further increase compared to SHAM mice
same,NA levels in the PFC,noradrenaline (NA); PFC,significantly increased NA levels
same,KYN levels in the HIPP,kynurenine (KYN); HIPP,prevented the increase in KYN levels
same,KYN levels in the PFC,kynurenine (KYN); PFC,prevented such an increase
same,5-HT levels in the HIPP,5-HT; HIPP,no differences among experimental groups
same,5-HT levels in the PFC,5-HT; PFC,no effect
